This series deals with CCRIS mutagenicity, Ames/micronucleus/aberration tests. As to the kind of experiment: CCRIS mutagenicity studies.
Where [1] appears, read: Test System: AMES SALMONELLA TYPHIMURIUM, Strain/Indicator: TA98, Metabolic Activation: NONE, Method: PREINCUBATION
Where [2] appears, read: Test System: AMES SALMONELLA TYPHIMURIUM, Strain/Indicator: TA98, Metabolic Activation: NONE, Method: STANDARD PLATE.
Setting [3] is: Test System: AMES SALMONELLA TYPHIMURIUM, Strain/Indicator: TA98, Metabolic Activation: RAT, LIVER, S-9, AROCLOR 1254, Method: STANDARD PLATE.
[4] abbreviates: Test System: AMES SALMONELLA TYPHIMURIUM, Strain/Indicator: TA100, Metabolic Activation: NONE, Method: PREINCUBATION
Where [5] appears, read: Test System: AMES SALMONELLA TYPHIMURIUM, Strain/Indicator: TA100, Metabolic Activation: NONE, Method: STANDARD PLATE.
[6] abbreviates: Test System: AMES SALMONELLA TYPHIMURIUM, Strain/Indicator: TA100, Metabolic Activation: RAT, LIVER, S-9, AROCLOR 1254, Method: STANDARD PLATE.

Each structure is given as a SMILES string. Active and inactive are the calls of the source. The rule behind the calls is not given here.

In the case of `CCCOC(=O)c1cc(O)c(O)c(O)c1`, the mutagenic call (End Point: IN VITRO CHROMOSOMAL ABERRATIONS, Test System: CHO CELLS, Metabolic Activation: RAT, LIVER, S-9, AROCLOR 1254) is “inactive; negative”; the mutagenic call (Test System: AMES SALMONELLA TYPHIMURIUM, Strain/Indicator: TA97, Metabolic Activation: NONE, Method: PREINCUBATION) was “inactive; negative”; the mutagenic call (Test System: AMES SALMONELLA TYPHIMURIUM, Strain/Indicator: TA97, Metabolic Activation: S-9, Method: PREINCUBATION) was “inactive; negative”; the mutagenic call under setting [1] was “inactive; negative”; the mutagenic call under setting [2] is “inactive; negative”; the mutagenic call (Test System: AMES SALMONELLA TYPHIMURIUM, Strain/Indicator: TA98, Metabolic Activation: RAT LIVER S-9, Method: PREINCUBATION) was “inactive; negative”. Also, the mutagenic call is “inactive; negative” under setting [3]; “inactive; negative” under setting [4]; “inactive; negative” under setting [5]; “inactive; negative” (Test System: AMES SALMONELLA TYPHIMURIUM, Strain/Indicator: TA100, Metabolic Activation: RAT LIVER S-9, Method: PREINCUBATION); “inactive; negative” under setting [6]; “inactive; negative” (Test System: AMES SALMONELLA TYPHIMURIUM, Strain/Indicator: TA102, Metabolic Activation: NONE, Method: PREINCUBATION). Also, the mutagenic call (Test System: AMES SALMONELLA TYPHIMURIUM, Strain/Indicator: TA102, Metabolic Activation: S-9, Method: PREINCUBATION) is “active; positive”; the mutagenic call (Test System: AMES SALMONELLA TYPHIMURIUM, Strain/Indicator: TA1535, Metabolic Activation: NONE, Method: STANDARD PLATE) is “inactive; negative”; the mutagenic call (Test System: AMES SALMONELLA TYPHIMURIUM, Strain/Indicator: TA1535, Metabolic Activation: RAT, LIVER, S-9, AROCLOR 1254, Method: STANDARD PLATE) is “inactive; negative”; the mutagenic call (Test System: AMES SALMONELLA TYPHIMURIUM, Strain/Indicator: TA1537, Metabolic Activation: NONE, Method: STANDARD PLATE) is “inactive; negative”; the mutagenic call (Test System: AMES SALMONELLA TYPHIMURIUM, Strain/Indicator: TA1537, Metabolic Activation: RAT, LIVER, S-9, AROCLOR 1254, Method: STANDARD PLATE) was “inactive; negative”; the mutagenic call (Test System: AMES SALMONELLA TYPHIMURIUM, Strain/Indicator: TA1538, Metabolic Activation: NONE, Method: STANDARD PLATE) was “inactive; negative”. Further, the mutagenic call is “inactive; negative” (Test System: AMES SALMONELLA TYPHIMURIUM, Strain/Indicator: TA1538, Metabolic Activation: RAT, LIVER, S-9, AROCLOR 1254, Method: STANDARD PLATE); “inactive; negative” (Test System: Ames Salmonella typhimurium, Strain/Indicator: TA102, Metabolic Activation: None, Method: Preincubation); “inactive; negative” (Test System: Ames Salmonella typhimurium, Strain/Indicator: TA102, Metabolic Activation: Rat, Liver, S-9, Aroclor 1254 in 0.154 M KCl, Method: Preincubation); “inactive; negative” (Test System: E. COLI, Strain/Indicator: WP2, Metabolic Activation: NONE, Method: STANDARD PLATE); “inactive; negative” (Test System: E. COLI, Strain/Indicator: WP2, Metabolic Activation: RAT, LIVER, S-9, AROCLOR 1254, Method: STANDARD PLATE).

As to `COC1=CC(=O)c2c(nc(C)c3c2[nH]c2ccccc23)C1=O`, the mutagenic call is, setting by setting: (Test System: AMES SALMONELLA TYPHIMURIUM, Strain/Indicator: TA97, Metabolic Activation: NONE, Method: STANDARD PLATE) “active; positive”; (Test System: AMES SALMONELLA TYPHIMURIUM, Strain/Indicator: TA97, Metabolic Activation: RAT, LIVER, S-9, AROCLOR 1254, Method: STANDARD PLATE) “active; positive”; (Test System: AMES SALMONELLA TYPHIMURIUM, Strain/Indicator: TA97A, Metabolic Activation: NONE, Method: STANDARD PLATE) “active; positive”; (Test System: AMES SALMONELLA TYPHIMURIUM, Strain/Indicator: TA97A, Metabolic Activation: RAT LIVER S-9, AROCLOR 1254, Method: STANDARD PLATE) “active; positive”; under setting [2], “active; positive”; (Test System: AMES SALMONELLA TYPHIMURIUM, Strain/Indicator: TA98, Metabolic Activation: RAT LIVER S-9, AROCLOR 1254, Method: STANDARD PLATE) “active; positive”. Also, the mutagenic call is, setting by setting: under setting [3], “active; positive”; under setting [5], “active; positive”; (Test System: AMES SALMONELLA TYPHIMURIUM, Strain/Indicator: TA100, Metabolic Activation: RAT LIVER S-9, AROCLOR 1254, Method: STANDARD PLATE) “active; positive”; under setting [6], “active; positive”; (Test System: AMES SALMONELLA TYPHIMURIUM, Strain/Indicator: TA102, Metabolic Activation: RAT LIVER S-9, AROCLOR 1254, Method: STANDARD PLATE) “inactive; negative”; (Test System: AMES SALMONELLA TYPHIMURIUM, Strain/Indicator: TA102, Metabolic Activation: RAT, LIVER, S-9, AROCLOR 1254, Method: STANDARD PLATE) “inactive; negative”.

On to `CCN(CC)CCCNC(=O)N/N=C/c1ccc([N+](=O)[O-])o1`, for which the mutagenic call (Test System: E. COLI, Strain/Indicator: WP2 UVRA, Metabolic Activation: NONE, Method: SPOT) was “active; positive”.

Take `CC1CC(OC(=O)c2ccccc2O)CC(C)(C)C1` (centres undefined): the mutagenic call by setting is: (Test System: AMES SALMONELLA TYPHIMURIUM, Strain/Indicator: TA98, Metabolic Activation: HAMSTER, LIVER, S-9, AROCLOR 1254 (10%), Method: PREINCUBATION) “inactive; negative”; under setting [1], “inactive; negative”; (Test System: AMES SALMONELLA TYPHIMURIUM, Strain/Indicator: TA98, Metabolic Activation: RAT, LIVER, S-9, AROCLOR 1254 (10%), Method: PREINCUBATION) “inactive; negative”; (Test System: AMES SALMONELLA TYPHIMURIUM, Strain/Indicator: TA100, Metabolic Activation: HAMSTER, LIVER, S-9, AROCLOR 1254 (10%), Method: PREINCUBATION) “inactive; negative”; under setting [4], “inactive; negative”; (Test System: AMES SALMONELLA TYPHIMURIUM, Strain/Indicator: TA100, Metabolic Activation: RAT, LIVER, S-9, AROCLOR 1254 (10%), Method: PREINCUBATION) “inactive; negative”. For the same compound, the mutagenic call reads like this: (Test System: AMES SALMONELLA TYPHIMURIUM, Strain/Indicator: TA1535, Metabolic Activation: HAMSTER, LIVER, S-9, AROCLOR 1254 (10%), Method: PREINCUBATION) “inactive; negative”; (Test System: AMES SALMONELLA TYPHIMURIUM, Strain/Indicator: TA1535, Metabolic Activation: NONE, Method: PREINCUBATION) “inactive; negative”; (Test System: AMES SALMONELLA TYPHIMURIUM, Strain/Indicator: TA1535, Metabolic Activation: RAT, LIVER, S-9, AROCLOR 1254 (10%), Method: PREINCUBATION) “inactive; negative”; (Test System: AMES SALMONELLA TYPHIMURIUM, Strain/Indicator: TA1537, Metabolic Activation: HAMSTER, LIVER, S-9, AROCLOR 1254 (10%), Method: PREINCUBATION) “inactive; negative”; (Test System: AMES SALMONELLA TYPHIMURIUM, Strain/Indicator: TA1537, Metabolic Activation: NONE, Method: PREINCUBATION) “inactive; negative”; (Test System: AMES SALMONELLA TYPHIMURIUM, Strain/Indicator: TA1537, Metabolic Activation: RAT, LIVER, S-9, AROCLOR 1254 (10%), Method: PREINCUBATION) “inactive; negative”.

With `COc1nsc2cc(OCC3CO3)ccc12` (centres undefined), under setting [5], the mutagenic call is “active; positive”.
